What was measured:
[1] = biological target: T1, BRN2 (Homo sapiens, UniProt P20265); experiment: BLI binding
T1 sequence (P20265 1-443): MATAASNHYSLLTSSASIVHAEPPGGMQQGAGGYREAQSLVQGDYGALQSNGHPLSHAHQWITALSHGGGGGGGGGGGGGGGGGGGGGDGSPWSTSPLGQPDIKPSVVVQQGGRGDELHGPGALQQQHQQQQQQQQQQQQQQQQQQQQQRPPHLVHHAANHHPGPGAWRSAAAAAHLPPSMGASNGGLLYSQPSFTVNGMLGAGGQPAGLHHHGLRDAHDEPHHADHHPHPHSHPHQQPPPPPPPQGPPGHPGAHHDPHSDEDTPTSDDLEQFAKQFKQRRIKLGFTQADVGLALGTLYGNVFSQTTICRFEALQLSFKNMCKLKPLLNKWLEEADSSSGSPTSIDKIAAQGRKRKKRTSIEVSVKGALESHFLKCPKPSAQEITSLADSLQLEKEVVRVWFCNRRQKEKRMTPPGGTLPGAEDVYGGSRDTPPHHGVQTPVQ

[2] = biological target: T1, BRN2; experiment: Drug Affinity Responsive Target Stability (DARTS) assay; assay type: binding; set-up: endogenous in cells; host or cells: 42D^ENZR cells; conditions: 42D^ENZR cell lysate, yes/no direct interaction with BRN2
Method: This in cell assay provides a yes/no answer to direct interaction between BRN2 inhibitor and protein. • i) Prepare and place the following on ice: • Pronase • TNC 10× • −500 mM Tris-HCl (pH 8.0) • −500 mM NaCl, 100 mM CaCl2 • DMSO • Drug • 10 mL NP40+Protease inhibitor+Phosphatase inhibitor solution (can store in 4° C. and use for up to 4 weeks): • −2 mL NP40 5× • −8 mL ddH2O • −1 PhosphoSTOP™ pill • −200 uL protease inhibitor 50×
2) Remove the growth medium from the cell plate (42D^ENZR) and add 10 mL of cold PBS/vanadate.
3) Scrape the cells. Remove the PBS-cell solution and add in a falcon tube.
4) Name a new 1.5 ml Eppendorf tube and put on ice to pre-chill.
5) Centrifuge the cells at 1500 for 5 minutes at 4° C. Remove supernatant and re-suspend the cells in 600 uL NP40 lysis buffer by pipetting up and down. If the cell pellet is small use less volume, for example 300 μl)
6) Transfer the lysing cells into the pre-chilled Eppendorf tube. Incubate on ice for 20 minutes. If not continuing the DARTS on the same day, you can put the lysate in −30 and work on it later.
7) Centrifuge the tube at maximum speed for 25-30 minutes at 4° C.
8) Discard the pellet (either transfer the supernatant in a new tube or just take out the pellet). […]
20) The samples are ready for Western blot gel running. […]

[3] = test system: 42D^ENZR cells vs 16D^CRPC cells; experiment: Cell proliferation specificity, 42D^ENZR cells vs 16D^CRPC cells; assay type: cell-based; conditions: 42D cells express BRN2, 16D cells do not; some also LNCaP; result in words
Method: (§1) Plate 42DENZR (˜7000 cells per well) and 16D^CRPC (˜5000 cells per well) cells in 96 well plate with a volume of 100 μL per well. • 2. Next day 1 mL aliquots of media are combined with 3× the desired concentration of compounds. The aliquots are vortexed and 50 μL of each 3× concentration is added to the 100 μL of media in each well to give the ix desired concentration.
(§2) The following are the desired concentrations:
(§3) 0, 10 nM, 100 nM, 500 nM, 1 μM, 2.5 μM, 5 μM, 10 μM, 15 μM, […], 30 μM. • 3. Approximately 72 hours later, 17 μL of 10% Glutaraldehyde is added to each well and plates are placed on a shaker for 20-30 minutes. • 4. Media is washed off the fixed cells by slow submersion in a container of water. Then the water is removed by tapping the plate upside down. • 5. 75 μL of Crystal Violet™ solution is added into the 96 well plates and placed on a shaker for ˜30 minutes. • 6. Media is washed off the fixed cells by repeated slow submersion in a container of water and the plates are allowed to dry over-night. • 7. Next day, 75 μL of Sorensen Solution is accurately pipetted into each well. The plates placed on a shaker for ˜30 minutes. • 8. Absorbance is measured in the plate at 590 nm.
Compounds that Show Specificity Towards 42D^ENZR Cells Vs 16D^CRPC Cells Progress to Step 4.
Where data is not available “na” is inserted.

[4] = test system: 42D^ENZR cells; experiment: Cell proliferation (crystal violet), BRN2 expressing 42D^ENZR cells; assay type: cell-based; conditions: 42D cells, approximately 72 hours
Method: as §1, §2, §3

Row | Compound | BLI binding [1] | DARTS binding [2] | specificity [3] | IC50 [4] [nM]
1 | FC(F)(F)c1ccc2cc(-c3csc(-c4ccco4)n3)oc2c1 [VPC-18-51, 2-(Furan-2-yl)-4-(6-(trifluoromethyl)benzofuran-2-yl)thiazole] | binding | binding | specific 42D not 16D | –
2 | Clc1cc2cc(-c3csc(-c4ccc[nH]4)n3)oc2cc1Cl [VPC-18-142] | binding | binding | not 16D | 2500

From US20220106304A1, “Transcription Factor BRN2 Inhibitory Compounds as Therapeutics and Methods for Their Use” (The University of British Columbia, priority 2018, published 2022)
